# Laboratory results published in US20260216238A1, “TETRATHIOMOLYBDIC ACID FOR USE IN TREATING COPPER METABOLISM-ASSOCIATED DISEASES OR DISORDERS (WILSON DISEASE)” (Alexion Pharmaceuticals, Inc., priority 2023, published 2026).
# Read-outs that look alike come from different tables or passages of the source.
# Tested on: participants with WD
# Excerpt: The term “dNCC” refers to NCC as directly measured using an NCC assay. For example, in certain embodiments of the methods, uses, or compositions (e.g., comprising tetrathiomolybdic acid or a pharmaceutically acceptable salt thereof) of the disclosure, dNCC is directly measured using the NCC assay as disclosed in PCT Patent Application Publication No. WO2021/050850, filed on Sep.
# These participants had all intake (food and drink) and output (urine and feces) collected from Day −4 through Day −1 (baseline), from Day 1 through Day 8, and Day 25 through Day 39.
substance,measurement,setting,value
bis-choline tetrathiomolybdate [TTM],"Increase from Baseline in Directly Measured NCC, Mean","Day 1, 2 Hours Post-Dose",0.5004 µmol/L
same,"Increase from Baseline in Directly Measured NCC, Mean","Day 1, 4 Hours Post-Dose",1.96 µmol/L
same,"Increase from Baseline in Directly Measured NCC, Mean","Day 1, 5 Hours Post-Dose",2.719 µmol/L
same,"Increase from Baseline in Directly Measured NCC, Mean","Day 1, 6 Hours Post-Dose",2.324 µmol/L
same,"Increase from Baseline in Directly Measured NCC, Mean","Day 1, 8 Hours Post-Dose",2.402 µmol/L
same,"Increase from Baseline in Directly Measured NCC, Mean","Day 1, 12 Hours Post-Dose",1.725 µmol/L
same,"Increase from Baseline in Directly Measured NCC, Mean","Day 1, 24 Hours Post-Dose",1.063 µmol/L
same,"Increase from Baseline in Directly Measured NCC, Mean","Day 4, Pre-Dose",2.677 µmol/L
same,"Increase from Baseline in Directly Measured NCC, Mean","Day 5, Pre-Dose",3.144 µmol/L
same,"Increase from Baseline in Directly Measured NCC, Mean","Day 6, Pre-Dose",3.574 µmol/L
same,"Increase from Baseline in Directly Measured NCC, Mean","Day 7, Pre-Dose",3.7 µmol/L
same,"Increase from Baseline in Directly Measured NCC, Mean","Day 25, 2 Hours Post-Dose",2.551 µmol/L
same,"Increase from Baseline in Directly Measured NCC, Mean","Day 25, 4 Hours Post-Dose",3.443 µmol/L
same,"Increase from Baseline in Directly Measured NCC, Mean","Day 25, 5 Hours Post-Dose",3.38 µmol/L
same,"Increase from Baseline in Directly Measured NCC, Mean","Day 25, 6 Hours Post-Dose",4.44 µmol/L
same,"Increase from Baseline in Directly Measured NCC, Mean","Day 25, 8 Hours Post-Dose",5.101 µmol/L
same,"Increase from Baseline in Directly Measured NCC, Mean","Day 25, 12 Hours Post-Dose",4.917 µmol/L
same,"Increase from Baseline in Directly Measured NCC, Mean","Day 25, 24 Hours Post-Dose",3.438 µmol/L
same,"Increase from Baseline in Directly Measured NCC, Mean","Day 25, −0.5 Hours",2.121 µmol/L
same,"Increase from Baseline in Directly Measured NCC, Mean","Day 27, Pre-Dose, N=2",2.767 µmol/L
same,"Increase from Baseline in Directly Measured NCC, Mean","Day 28, Pre-Dose, N=2",2.327 µmol/L
same,"Increase from Baseline in Directly Measured NCC, Mean","Day 29, 2 Hours Post-Dose",2.814 µmol/L
same,"Increase from Baseline in Directly Measured NCC, Mean","Day 29, 4 Hours Post-Dose",3.38 µmol/L
same,"Increase from Baseline in Directly Measured NCC, Mean","Day 29, 5 Hours Post-Dose",4.078 µmol/L
same,"Increase from Baseline in Directly Measured NCC, Mean","Day 29, 6 Hours Post-Dose",4.686 µmol/L
same,"Increase from Baseline in Directly Measured NCC, Mean","Day 29, 8 Hours Post-Dose",5.305 µmol/L
same,"Increase from Baseline in Directly Measured NCC, Mean","Day 29, 12 Hours Post-Dose",4.749 µmol/L
same,"Increase from Baseline in Directly Measured NCC, Mean","Day 29, 24 Hours Post-Dose",3.543 µmol/L
same,"Increase from Baseline in Directly Measured NCC, Mean","Day 29, −0.5 Hours",2.662 µmol/L
same,"Increase from Baseline in Directly Measured NCC, Mean","Day 31, Pre-Dose, N=2",4.121 µmol/L
same,"Increase from Baseline in Directly Measured NCC, Mean","Day 32, Pre-Dose, N=1",8.131 µmol/L
same,"Increase from Baseline in Directly Measured NCC, Mean","Day 33, Pre-Dose, N=2",4.231 µmol/L
same,"Increase from Baseline in Directly Measured NCC, Mean","Day 34, Pre-Dose, N=2",4.103 µmol/L
same,"Increase from Baseline in Directly Measured NCC, Mean","Day 35, Pre-Dose, N=2",4.49 µmol/L
same,"Increase from Baseline in Directly Measured NCC, Mean","Day 36, Pre-Dose, N=2",3.465 µmol/L
same,"Increase from Baseline in Directly Measured NCC, Mean","Day 37, Pre-Dose, N=2",4.168 µmol/L
same,"Increase from Baseline in Directly Measured NCC, Mean","Day 38, Pre-Dose, N=1",7.643 µmol/L
same,"Increase from Baseline in Directly Measured NCC, Mean","Day 39, 2 Hours Post-Dose",3.816 µmol/L
same,"Increase from Baseline in Directly Measured NCC, Mean","Day 39, 4 Hours Post-Dose",5.578 µmol/L
same,"Increase from Baseline in Directly Measured NCC, Mean","Day 39, 5 Hours Post-Dose",6.26 µmol/L
same,"Increase from Baseline in Directly Measured NCC, Mean","Day 39, 6 Hours Post-Dose",6.659 µmol/L
same,"Increase from Baseline in Directly Measured NCC, Mean","Day 39, 8 Hours Post-Dose",7.32 µmol/L
same,"Increase from Baseline in Directly Measured NCC, Mean","Day 39, 12 Hours Post-Dose",6.554 µmol/L
same,"Increase from Baseline in Directly Measured NCC, Mean","Day 39, 24 Hours Post-Dose",4.545 µmol/L
same,"Increase from Baseline in Directly Measured NCC, Mean","Day 39, −0.5 Hours",3.412 µmol/L
